# Test results taken from the supplement of paper PMC10307832.
# How the values were obtained:
# Experiment in all cases: relative viability (nuclei count vs DMSO), 5 days (fraction); higher = more cells survive
# [1] = compound: COC1=CC=C(C=C1)CN2C=CC3=C2C=C(C=C3)C(=O)NO + COc1cc2c(Oc3ccc(NC(=O)C4(C(=O)Nc5ccc(F)cc5)CC4)cc3F)ccnc2cc1OCCCN1CCOCC1 [Foretinib] (partner 0.25 µM)
# In short: (§1)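 Lung cancer cell lines were seeded in 1536-well plates and dosed by pin tool the next day, with either a single drug or a fixed anchor-drug dose combined with five library-drug doses (not always all listed) spaced in √10 steps. Five days later, one step fixed the cells and stained their nuclei (final 0.05% Triton X-100, 1% formaldehyde, 1 ug/ml Hoechst), and nuclei were counted on 4× images. Relative viability is the nuclei count in treated wells divided by the count in vehicle wells, and each value is the median of duplicate plates.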
# [2] = compound: COC1=CC=C(C=C1)CN2C=CC3=C2C=C(C=C3)C(=O)NO + O=C(CCCCCCC(=O)Nc1ccccc1)NO [Vorinostat] (partner 1 µM)
# In short: as §1
# Veliparib + Trametinib = compound: C[C@]1(c2nc3c(C(N)=O)cccc3[nH]2)CCCN1 [Veliparib] + CC(=O)Nc1cccc(-n2c(=O)n(C3CC3)c(=O)c3c(Nc4ccc(I)cc4F)n(C)c(=O)c(C)c32)c1 [Trametinib] (partner 0.02 µM)
# In short: as §1
# Veliparib + Navitoclax = compound: C[C@]1(c2nc3c(C(N)=O)cccc3[nH]2)CCCN1 [Veliparib] + CC1(C)CCC(c2ccc(Cl)cc2)=C(CN2CCN(c3ccc(C(=O)NS(=O)(=O)c4ccc(N[C@H](CCN5CCOCC5)CSc5ccccc5)c(S(=O)(=O)C(F)(F)F)c4)cc3)CC2)C1 [Navitoclax] (partner 0.5 µM)
# In short: as §1
Cell Line,relative viability ([1]; first compound 0.08 µM),relative viability ([1]; first compound 0.253 µM),relative viability ([1]; first compound 0.8 µM),relative viability ([1]; first compound 2.53 µM),relative viability ([1]; first compound 8 µM),relative viability ([2]; first compound 0.08 µM),relative viability ([2]; first compound 0.253 µM),relative viability ([2]; first compound 0.8 µM),relative viability ([2]; first compound 2.53 µM),relative viability ([2]; first compound 8 µM),relative viability (Veliparib + Trametinib; first compound 0.02 µM),relative viability (Veliparib + Trametinib; first compound 0.06325 µM),relative viability (Veliparib + Trametinib; first compound 0.2 µM),relative viability (Veliparib + Trametinib; first compound 0.6325 µM),relative viability (Veliparib + Trametinib; first compound 2 µM),relative viability (Veliparib + Navitoclax; first compound 0.02 µM),relative viability (Veliparib + Navitoclax; first compound 0.06325 µM),relative viability (Veliparib + Navitoclax; first compound 0.2 µM),relative viability (Veliparib + Navitoclax; first compound 0.6325 µM),relative viability (Veliparib + Navitoclax; first compound 2 µM)
HCC-366,0.433,0.994,0.89,0.992,0.923,0.107,0.303,0.385,0.407,0.223,0.375,0.312,0.384,0.327,0.42,1.09,1.01,0.968,0.942,1.1
HCC-827,0.834,1.13,1.09,1.05,0.996,0.592,0.897,0.799,0.799,0.788,0.59,0.514,0.529,0.504,0.516,1.03,0.937,0.971,0.944,1.02
HOP-62,0.74,1.14,1.08,1.01,1.1,0.39,0.666,0.528,0.748,0.531,0.375,0.322,0.351,0.39,0.407,1.05,1,1.06,0.937,1.03
IA-LM,0.997,1.33,1.08,1.2,1.06,0.801,–,0.971,1.05,0.961,–,–,–,–,–,0.939,0.697,0.755,0.697,0.94
LC-2-ad,0.904,0.918,0.899,0.906,0.816,0.58,0.742,0.748,0.701,0.592,0.897,0.904,0.914,0.891,0.912,–,0.446,0.405,0.312,0.497
LCLC-97TM1,0.444,0.992,0.96,0.942,0.923,–,0.659,0.772,0.557,0.438,0.221,0.178,0.202,0.183,0.198,0.425,0.32,0.387,–,0.476
LCLC-103H,0.68,0.846,0.832,0.789,0.761,0.647,0.832,0.868,0.748,0.613,0.764,0.606,0.668,0.74,0.718,–,–,–,–,–
LK-2,–,1.66,1.4,0.949,1.03,0.172,0.291,0.282,0.308,0.221,0.773,0.773,0.788,0.763,0.766,0.713,0.876,1.24,0.831,0.823
LOU-NH91,0.899,0.941,0.915,0.908,0.861,–,0.953,0.906,0.963,0.884,0.814,0.789,0.793,0.725,0.811,0.539,0.643,0.672,0.689,0.703
LU99A,–,0.904,0.841,0.865,0.836,–,0.504,0.581,0.418,0.352,0.552,0.536,0.566,0.537,0.571,0.761,0.779,0.832,0.657,0.863
NCI-H358,–,0.684,0.801,0.575,0.57,–,0.721,0.703,0.606,0.528,0.0965,0.12,0.195,0.115,0.152,–,–,–,–,–
NCI-H522,–,–,–,–,–,–,0.982,1.03,0.909,0.845,0.716,0.608,0.805,0.771,1.01,–,–,–,–,–
NCI-H650,1.04,1.01,1.04,1.02,0.936,0.337,0.414,0.437,0.477,0.34,0.999,0.999,0.988,0.938,0.971,–,–,–,–,–
NCI-H661,–,1.02,1.03,0.999,0.927,–,0.807,0.717,0.747,0.639,0.525,0.646,0.584,0.543,0.64,–,–,–,–,–
NCI-H1299,1.09,1.1,1.15,1.09,1.05,–,–,–,–,–,–,–,–,–,–,1.06,0.989,1.03,0.996,1.07
NCI-H1563,0.762,0.897,0.888,0.928,0.892,–,–,–,–,–,–,–,–,–,–,–,–,–,–,–
NCI-H1623,0.649,0.82,0.866,0.859,0.766,–,–,–,–,–,–,–,–,–,–,–,–,–,–,–
NCI-H1648,–,–,–,–,–,0.373,0.515,0.337,0.528,0.406,0.631,–,–,0.557,0.516,–,–,–,–,–
NCI-H1703,–,0.374,0.385,0.368,0.307,–,–,–,–,–,–,–,–,–,–,1.62,0.849,1.08,0.977,1.29
NCI-H1792,–,–,–,–,–,–,–,–,–,–,0.499,0.411,0.41,0.438,0.401,0.589,0.5,0.67,0.616,0.564
NCI-H2342,0.997,0.986,0.978,0.956,1.02,0.591,0.738,0.694,0.701,0.788,0.76,0.81,0.701,0.742,0.736,–,–,–,–,–
SW 900,0.746,0.822,0.908,0.828,0.719,0.477,0.334,0.441,0.733,0.358,–,0.75,0.938,0.621,0.828,–,–,–,–,–
